{"source": "patent US20210299134A1", "about": "“TREATMENT OF B CELL MALIGNANCIES” (MEI Pharma, Inc., priority 2018, published 2021)", "origin": "cited, not measured here", "key": {"TREGs": {"test_system": "TREGs", "settings": "after administration of a single dose; cited from earlier work"}, "[1]": {"settings": "cited from earlier work"}, "B-cell malignancies": {"test_system": "B-cell malignancies", "settings": "a day per week dosing after once daily dosing for two 28-day cycles; preliminary data; cited from earlier work"}}, "data": [{"molecule": "denileukin diftitox", "values": [{"measurement": "time to TREGs repopulation", "setting": "TREGs", "value": "approximately 14 days"}]}, {"molecule": "CCOc1c([C@H](C)n2nc(C)c3c(N)ncnc32)cc(Cl)c(F)c1[C@@H]1CNC(=O)C1", "note": "[parsaclisib]", "values": [{"measurement": "plasma levels versus tissue levels", "setting": "[1]; FIG. 6B", "value": "plasma approximates tissue levels"}, {"measurement": "plasma levels >IC90, share of time", "setting": "[1]; once weekly dosing", "value": 32, "unit": "%"}, {"measurement": "incidence of severe irAEs on IS", "setting": "B-cell malignancies", "value": "decrease in the incidence of severe irAEs"}, {"measurement": "tumor progression on IS", "setting": "B-cell malignancies", "value": "high rate of tumor progression"}]}]}
